The structures appear in SMILES notation.

For orientation: IC50 means the concentration that inhibits the measured activity by half.

Test [1] concerns H-Meso-1. In words: Mesothelioma xenograft model (H-Meso-1) in SCID mice. The test is classed as in vivo. The conditions noted are these: thirty-one days following treatment; docetaxel 10 mg/kg intraperitoneally daily Mon-Fri, SDX-102 50 mg/kg osmotic pump; start 100 mm^3; control 1272.
Test [2] relates to BxPC3. As to the kind of experiment: Cell viability MTT assay (Example 3). As to conditions: Homo sapiens, BXPC-3, 72 h; BxPC3, Pancreatic, MTAP Negative; 3 days. The class given is cell-based. For orientation: Formazan colour is commonly taken as a measure of viable cells.
The test system of test [3] is NCI-H322M. As to the kind of experiment: Docetaxel, 5-FU, SDX-102 alone or combined, MTT/MTS cytotoxicity (Example 4). The test is classed as cell-based. As to conditions: Homo sapiens, NSCLC, single agent, MTT 72 hours.
The nature of test [4]: Cell viability MTT assay (Example 3). As to conditions: 72 h; A-594, NSCLC, MTAP Negative; 3 days. The test is classed as cell-based.
Test [5] concerns NCI-H2452. As to the kind of experiment: Cell viability MTT assay (Example 3). The class given is cell-based. As to conditions: Homo sapiens, 72 h; NCI-H2452, Mesothelioma, MTAP Negative; 3 days.

In the case of `NC(CN(O)N=O)C(=O)O` [L-alanosine, L(−)-2-amino-3-nitrosohydroxylaminopropionic acid], in test [1], the mean tumor volume came out at 1035 mm^3. The IC50 in test [2] was determined as 6 µM; in test [3], 6 ± 1 µM; in test [4] it was 0.4 µM; in test [5], 0.5 µM.
